Source: US20260041744A1, “Methods for Treating Pompe Disease” (Amicus Therapeutics, Inc., priority 2022, published 2026)

How the values were obtained:
[1] = test system: adult subjects with late-onset Pompe disease (LOPD); experiment: Study ATB200-03 (PROPEL): serum creatine kinase (CK); assay type: in vivo, human; settings: combined study population
[2] = test system: adult subjects with LOPD; experiment: Study ATB200-07 (OLE): Hex4
Protocol: The Phase III double-blind PROPEL study (NCT03729362; ATB200-03) described in Examples 9 and 10 above compared the investigational two-component therapy cipaglucosidase alfa/miglustat (cipa/mig) with alglucosidase alfa/placebo (alglu) in adults with late-onset Pompe disease (LOPD) over 52 weeks. The ongoing open-label extension (OLE) of PROPEL (NCT04138277; ATB200-07) evaluates long-term safety and efficacy of cipa/mig. Outcomes include 6 minute walk distance (6MWD), forced vital capacity (FVC), creatine kinase (CK) and hexose tetrasaccharide (Hex4) levels and safety. Data are reported as change from the PROPEL baseline to OLE week 52 (104 weeks after the PROPEL baseline).

[3] = test system: adult subjects with late-onset Pompe disease (LOPD); experiment: Study ATB200-03: summary across primary, secondary and biomarker endpoints (incl. SVC, FVC supine, MIP, MEP, SNIP, MMT upper/overall, QMT, TUG); settings: ITT excluding outlier subject
Excerpt: • overall physical wellbeing • effort of breathing • muscle strength • muscle function • ability to move around • activities of daily living • energy level • level of muscular pain • actual value of the subject's functional status (improving, stable, or declining) at Week 52, as measured by the Physician's Global Impression of Change • change from baseline to Week 52 in the following measures of pulmonary function, as follows: • sitting FVC (% predicted) • MIP (cmH2O) • MIP (% predicted) • MEP (cmH2O) • MEP (% predicted) • SNIP (cmH2O)

[4] = test system: adult subjects with LOPD; experiment: Study ATB200-07 (OLE): sitting % predicted FVC; assay type: in vivo, human
Excerpt: (§1) The study doses and schedule are maintained from Study ATB200-03.
(§2) Efficacy data are presented in this summary as change from the baseline of Study ATB200-03 (OLE-ES Population).

[5] = test system: LOPD population (PROPEL target population); experiment: Multi-level network meta-regression (ML-NMR) indirect treatment comparison, 6MWD and FVC change from baseline at week 52; design: species or system human; settings: base-case scenario
Protocol: Using patient-level data from the PROPEL randomized clinical trial (RCT) plus aggregate published data from other RCTs, Phase I/II and open label extension trials, a multi-level network meta-regression was conducted, adjusting for various baseline covariates including previous ERT duration. The base case scenario had covariates resembling the PROPEL population (naïve and ERT-experienced) and analyzed 6MWD and FVC change from baseline at 52 weeks.
An ITC providing relative effect estimates in the target population of interest (ie an LOPD population including a mix of ERT-naïve and ERT-experienced subjects as in the pivotal Phase III trial comparing Cipa+mig with Alglu [PROPEL]) was performed.
A systematic literature review (SLR) was conducted to identify relevant published clinical studies of ERTs in LOPD. Outcomes assessed were change from baseline in 6-minute walking distance (6MWD) (m) and in forced vital capacity (FVC; % predicted) at week 52, acknowledged by clinicians, HTA agencies and payers as key LOPD trial endpoints. Aggregate results on 6MWD and FVC change from baseline over time and baseline characteristics (age, gender, ethnicity, previous ERT duration, baseline 6MWD and baseline FVC) were extracted from included studies.
A multi-level network meta regression (ML-NMR) was performed, which is an extension of standard network meta-analyses (NMAs) that take into account the effect of study-level covariates, and that can be applied to any connected network with any mixture of individual patient-level data (IPD) and aggregate data. ML-NMR is an accepted method by the National Institute for Health and Care Excellence (NICE) in support of cost effectiveness analysis. Single-arm study results were matched to appropriate comparator arms of the comparative studies to allow for inclusion into the network. Mean treatment differences with associated 95% credible intervals (CrIs) were calculated for 6MWD and FVC change from baseline at week 52.
A base-case scenario was evaluated in which all covariates were set to the target population of the PROPEL trial. To study the impact of previous ERT duration on relative effects, ERT duration value was varied, keeping remaining covariate values as in the base-case scenario. A sensitivity analysis was performed by excluding all matched single-arm evidence from the network to assess its impact on the results.
Both fixed effects (FE) and random effects (RE) ML-NMR models were applied and the deviance information criteria (DIC) was used to assess goodness-of-fit of the models and to identify the appropriate model (FE or RE model) for the data. Models were implemented in a Bayesian framework using Stan with help of the R package multinma.
In the base-case scenario, the covariates were set to the baseline characteristics of the target population (ie the PROPEL trial; see Table 20), and time was set to 52 weeks.

[6] = test system: adult subjects with Pompe disease; experiment: Pooled Studies ATB200-02/03/07 (Pool 2): 6MWD by exposure interval; settings: exposure interval ≤15 months
Protocol: (§3) The pooled efficacy analyses presented within this section include the outlier (Pool 2). […] Pooled efficacy analyses excluding the outlier subject (Pool 2A) were also performed.
(§4) No long-term data for the alglucosidase alfa/placebo group are available, as all subjects switched to cipaglucosidase alfa/miglustat in Study ATB200-07.
(§5) Efficacy data from the 3 adult Pompe disease clinical studies were pooled and analyzed to further support the long-term efficacy of cipaglucosidase alfa/miglustat in adult subjects. Data from non-ambulatory subjects (Study ATB200-02 Cohort 2) were not included in the pool as there was little overlap of efficacy endpoints for this group with the various ambulatory groups, such as 6MWD and lower MMT.
(§6) The 3 adult Pompe disease clinical studies were pooled as follows: • The cipaglucosidase alfa/miglustat treatment group consists of: • All ambulatory subjects in Study ATB200-02 (Cohorts 1, 3, and 4), • All subjects randomized to the cipaglucosidase alfa/miglustat treatment group in Study ATB200-03, and • All subjects enrolled in Study ATB200-07. • The alglucosidase alfa/placebo treatment group consists of: • All subjects randomized to the ERT treatment group in Study ATB200-03.

[7] = test system: adult subjects with LOPD; experiment: Study ATB200-07 (OLE): PROMIS-Physical Function; assay type: in vivo, human
Excerpt: (§7) Analysis populations presented in this summary are 1) the OLE-ES Population (all subjects who satisfied the eligibility requirements (based on the inclusion and exclusion criteria) and entered Study ATB200-07 and 2) the OLE-FAS Population (all subjects who entered the OLE Study ATB200-07 who had both a valid ATB200-07 baseline and at least 1 post-baseline assessment for at least 1 of the 6 main efficacy endpoints [6MWD, sitting % predicted FVC, MMT-lower extremities, PROMIS-Physical Function, PROMIS-Fatigue, and GSGC]).

[8] = test system: adult subjects with LOPD; experiment: Study ATB200-07 (OLE of PROPEL): 6MWD and % predicted 6MWD; assay type: in vivo, human
Excerpt: as §1, §2

[9] = test system: adult subjects with LOPD; experiment: Study ATB200-07 (OLE): GSGC; assay type: in vivo, human
Excerpt: as §7

[10] = test system: adult subjects with Pompe disease; experiment: Pooled Studies ATB200-02/03/07 (Pool 2): sitting % predicted FVC by exposure interval; settings: exposure interval ≤15 months
Protocol: as §3, §4, §5, §6

[11] = test system: adult subjects with LOPD; experiment: Study ATB200-07 (OLE): MMT lower extremity
Excerpt: as §7

[12] = Study ATB200-03 baseline, OLE-ES Population excluding Subject 4005-2511
[13] = change from ATB200-03 baseline at Week 52, OLE-ES excluding Subject 4005-2511
[14] = change from ATB200-03 baseline at Week 104, alglucosidase alfa/placebo group switched to cipaglucosidase alfa/miglustat at Week 52, OLE-ES excluding Subject 4005-2511
[15] = ERT-naïve, Study ATB200-03/07, excluding the outlier
[16] = Pool 2, Efficacy Population including the outlier
[17] = last available post-baseline value − baseline, Pool 2, including the outlier

alglucosidase alfa [reference compound]
mean change in CK after 52 weeks [1]: +15.6%
Hex4, mean BSL [2, 12]: 7.0
Hex4, mean 52-wk CFB [2, 13]: 1.6
Hex4, mean 104-wk CFB [2, 14]: −2.7
parameters with statistically significant decline from baseline at Week 52 [3]: GSGC, FVC sitting, FVC supine, SVC sitting, and CK
parameters with statistically significant improvement from baseline at Week 52 [3]: not observed for any parameters
% Predicted FVC Baseline Mean [4, 15]: 79.1 % predicted
% Predicted FVC CFBL M12 (W 52) Mean [4, 15]: −4.0 % predicted
% Predicted FVC CFBL M24 (W 104) Mean [4, 15]: −3.1 % predicted
Sitting FVC, mean BSL [4, 12]: 69.5 % predicted
Sitting FVC, mean 52-wk CFB [4, 13]: −3.6 % predicted
Sitting FVC, mean 104-wk CFB [4, 14]: −3.6 % predicted
relative effect, sensitivity analysis (RCT data only), 6MWT and FVC [5]: numerically favourable versus placebo
6MWD Baseline, Mean [6, 16]: 350.14 meters
6MWD Baseline, Median ([6]; Pool 2, including the outlier): 358.45 meters
6MWD change from baseline, median ([6]; Pool 2, including the outlier): 3.15 meters
6MWD change from baseline, mean [6, 17]: 16.40 meters
PROMIS-Physical Function, mean BSL [7, 12]: 67.9
PROMIS-Physical Function, mean 52-wk CFB [7, 13]: 0.3
PROMIS-Physical Function, mean 104-wk CFB [7, 14]: −0.4
6MWD, mean BSL [8, 12]: 351.7 m
6MWD, mean 52-wk CFB ([8]; change from ATB200-03 baseline at Week 52 (= ATB200-07 baseline), OLE-ES excluding Subject 4005-2511): 8.0 m
6MWD, mean 104-wk CFB [8, 14]: 3.3 m
GSGC, mean BSL [9, 12]: 14.3
GSGC, mean 52-wk CFB ([9]; change from ATB200-03 baseline at Week 52, decrease indicates improvement, OLE-ES excluding Subject 4005-2511): 0.9
GSGC, mean 104-wk CFB [9, 14]: 0.3
Sitting % Predicted FVC Baseline, Mean [10, 16]: 70.04 % predicted
Sitting % Predicted FVC Baseline, Median ([10]; Pool 2, including the outlier): 71.25 % predicted
sitting % predicted FVC change from baseline, median ([10]; Pool 2, including the outlier): −3.00 % predicted
sitting % predicted FVC change from baseline, mean [10, 17]: −3.64 % predicted
MMT (lower extremity score), mean BSL [11, 12]: 27.8
MMT (lower extremity score), mean 52-wk CFB [11, 13]: 0.9
MMT (lower extremity score), mean 104-wk CFB [11, 14]: 1.1
